Reference: PubChem BioAssay (NCI)
Several values for one entry are separate records, joined by “and”; a condition that tells them apart may be missing. Equal values may be shown once.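 Tested at 5 concentrations; 48 h exposure; 96-well plates; endpoints linearly interpolated, else capped at highest concentration. Abbreviation: GI50, concentration required for 50% inhibition of growth. At the TGI there is no net growth.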

How the values were obtained:
Test in all cases: NCI tumour cell line growth inhibition, 48 h
786-0 renal = system: 786-0 renal
HCT-116 colon = system: HCT-116 colon
IGROV1 ovarian = system: IGROV1 ovarian
NCI-H460 lung = system: NCI-H460 lung
OVCAR-4 ovarian = system: OVCAR-4 ovarian
SK-OV-3 ovarian = system: SK-OV-3 ovarian
A549 NSCLC = system: A549 NSCLC
HOP-92 NSCLC = system: HOP-92 NSCLC
NCI-H522 lung = system: NCI-H522 lung
UO-31 renal = system: UO-31 renal

c1cc[c]([Sn]([O]c2cccc3cccnc23)([O]c2cccc3cccnc23)[c]2ccccc2)cc1
GI50 (786-0 renal): 0.57 µM | TGI (786-0 renal): 4.74 µM | GI50 (HCT-116 colon): 0.199 µM | TGI (HCT-116 colon): 0.393 µM | GI50 (IGROV1 ovarian): 1.55 µM | TGI (IGROV1 ovarian): 3.06 µM | GI50 (NCI-H460 lung): 1.36 µM | TGI (NCI-H460 lung): 3.66 µM | GI50 (OVCAR-4 ovarian): 0.214 µM | TGI (OVCAR-4 ovarian): 0.406 µM | GI50 (SK-OV-3 ovarian): 1.83 µM | TGI (SK-OV-3 ovarian): 3.24 µM

O=C([CH-]C(=O)c1ccccc1)c1ccccc1.O=C([CH-]C(=O)c1ccccc1)c1ccccc1.O=C([CH-]C(=O)c1ccccc1)c1ccccc1.[Cl-].[Zr+4]
GI50 (786-0 renal): 18.6 µM | TGI (786-0 renal): 70.3 µM | GI50 (A549 NSCLC): 33.9 µM | TGI (A549 NSCLC): > 100 µM | GI50 (HOP-92 NSCLC): 8.09 µM | TGI (HOP-92 NSCLC): 36 µM | GI50 (IGROV1 ovarian): 34.3 µM | TGI (IGROV1 ovarian): > 100 µM | GI50 (NCI-H460 lung): 10.8 µM | TGI (NCI-H460 lung): 53.8 µM | GI50 (NCI-H522 lung): 11.4 µM | TGI (NCI-H522 lung): 46.6 µM | GI50 (OVCAR-4 ovarian): 15.9 µM | TGI (OVCAR-4 ovarian): 88.4 µM | GI50 (SK-OV-3 ovarian): 37.8 µM | TGI (SK-OV-3 ovarian): 74.5 µM

Cc1cccc(Nc2cc(Cl)nc(SCC(=O)O)n2)c1C
TGI (786-0 renal): > 100 µM | TGI (A549 NSCLC): > 100 µM | TGI (HCT-116 colon): > 100 µM | TGI (HOP-92 NSCLC): > 100 µM | TGI (IGROV1 ovarian): > 100 µM | TGI (NCI-H460 lung): > 100 µM | TGI (NCI-H522 lung): > 100 µM | TGI (OVCAR-4 ovarian): > 100 µM | TGI (SK-OV-3 ovarian): > 100 µM

O=C(NC(=O)c1cn(CCN2CCN(C(=O)NCCCCCCNC(=O)N3CCN(CCn4cc(C(=O)NC(=O)OCc5ccccc5)c(=O)[nH]c4=O)CC3)CC2)c(=O)[nH]c1=O)OCc1ccccc1
TGI (786-0 renal): > 100 µM | TGI (A549 NSCLC): > 100 µM | TGI (HCT-116 colon): > 100 µM | TGI (HOP-92 NSCLC): > 100 µM | TGI (IGROV1 ovarian): > 100 µM | TGI (NCI-H460 lung): > 100 µM | TGI (OVCAR-4 ovarian): > 100 µM | TGI (SK-OV-3 ovarian): > 100 µM | TGI (UO-31 renal): > 100 µM

CCc1nc2cc(/C=C/C(=O)NO)ccc2c(=O)n1CCc1ccc(OC)cc1
GI50 (786-0 renal): 2.31 µM | TGI (786-0 renal): 6.28 µM | GI50 (A549 NSCLC): 3.56 µM | TGI (A549 NSCLC): 15.1 µM | GI50 (HCT-116 colon): 1.59 µM | TGI (HCT-116 colon): 9.51 µM | GI50 (HOP-92 NSCLC): 1.9 µM | TGI (HOP-92 NSCLC): 5.7 µM | GI50 (NCI-H460 lung): 1.83 µM | TGI (NCI-H460 lung): 10.1 µM | GI50 (NCI-H522 lung): 1.43 µM | TGI (NCI-H522 lung): 4.66 µM | GI50 (OVCAR-4 ovarian): 2.96 µM | TGI (OVCAR-4 ovarian): 58.7 µM | GI50 (SK-OV-3 ovarian): 2.42 µM | TGI (SK-OV-3 ovarian): 6.11 µM | GI50 (UO-31 renal): 1.5 µM | TGI (UO-31 renal): 5.13 µM

COc1cc(-c2cc3ncccc3c3[nH]c(=O)c4cccnc4c23)cc(OC)c1OC
GI50 (786-0 renal): 0.722 µM | TGI (786-0 renal): > 100 µM | GI50 (A549 NSCLC): 1.28 µM | TGI (A549 NSCLC): > 100 µM | GI50 (HOP-92 NSCLC): 12.2 µM | TGI (HOP-92 NSCLC): > 100 µM | GI50 (IGROV1 ovarian): 3.61 µM | TGI (IGROV1 ovarian): > 100 µM | GI50 (NCI-H460 lung): 0.433 µM | TGI (NCI-H460 lung): > 100 µM | GI50 (NCI-H522 lung): 0.328 µM | TGI (NCI-H522 lung): 82.5 µM | GI50 (OVCAR-4 ovarian): 8.87 µM | TGI (OVCAR-4 ovarian): > 100 µM | GI50 (SK-OV-3 ovarian): 1.35 µM | TGI (SK-OV-3 ovarian): > 100 µM | GI50 (UO-31 renal): 1.09 µM | TGI (UO-31 renal): > 100 µM

CC12OC(C(=O)C13CCC3)C1C(=O)c3ccc4c(ccc5ccccc54)c3C(=O)C12 (centres undefined)
GI50 (786-0 renal): 3.65 µM | TGI (786-0 renal): 8.82 µM | GI50 (A549 NSCLC): 19.5 µM | TGI (A549 NSCLC): > 100 µM | GI50 (HCT-116 colon): 11.4 µM | TGI (HCT-116 colon): 24.8 µM | GI50 (HOP-92 NSCLC): 5.02 µM | TGI (HOP-92 NSCLC): 21.2 µM | GI50 (IGROV1 ovarian): 21.4 µM | TGI (IGROV1 ovarian): > 100 µM | GI50 (NCI-H460 lung): 12 µM | TGI (NCI-H460 lung): 35.9 µM | GI50 (NCI-H522 lung): 13 µM | TGI (NCI-H522 lung): 35.1 µM | GI50 (SK-OV-3 ovarian): 26.5 µM | TGI (SK-OV-3 ovarian): 80.5 µM | GI50 (UO-31 renal): 25.7 µM | TGI (UO-31 renal): > 100 µM

COC(=O)CC(C(C(C)=O)C(=O)OCc1ccccc1)N1C(=O)OC(c2ccccc2)C1c1ccccc1 (centres undefined)
TGI (786-0 renal): > 100 µM | TGI (A549 NSCLC): > 100 µM | TGI (HCT-116 colon): > 100 µM | GI50 (HOP-92 NSCLC): 84.5 µM and 39.8 µM | TGI (HOP-92 NSCLC): > 100 µM | TGI (IGROV1 ovarian): > 100 µM | TGI (NCI-H460 lung): > 100 µM | TGI (NCI-H522 lung): 65.8 µM and > 100 µM | TGI (SK-OV-3 ovarian): > 100 µM
